Assay results reported in the NIST ThermoML archive (doi:10.1016/j.jct.2004.01.006).
Values joined by “and” are separate entries in the source; they are usually repeats but may differ in a detail not shown here. Identical values can stand only once.

Assay: molar heat capacity at constant pressure
Details: 101.33 kPa

O=Cc1ccc(Cl)cc1Cl [2,4-dichlorobenzaldehyde]
Details | molar heat capacity at constant pressure
79.17 K, Crystal | 71.3 J/K/mol
80 K, Crystal | 71.33 J/K/mol
81.36 K, Crystal | 72.02 J/K/mol
83.11 K, Crystal | 72.63 J/K/mol
85 K, Crystal | 73.98 J/K/mol
85.3 K, Crystal | 73.72 J/K/mol
87.49 K, Crystal | 74.91 J/K/mol
89.6 K, Crystal | 76.29 J/K/mol
90 K, Crystal | 76.75 J/K/mol
91.66 K, Crystal | 77.86 J/K/mol
93.69 K, Crystal | 79.02 J/K/mol
95 K, Crystal | 79.6 J/K/mol
95.68 K, Crystal | 80.2 J/K/mol
97.64 K, Crystal | 81.37 J/K/mol
99.56 K, Crystal | 82.67 J/K/mol
100 K, Crystal | 82.48 J/K/mol
101.45 K, Crystal | 83.56 J/K/mol
103.32 K, Crystal | 84.39 J/K/mol
105 K, Crystal | 85.38 J/K/mol
105.16 K, Crystal | 85.43 J/K/mol
106.97 K, Crystal | 86.65 J/K/mol
108.76 K, Crystal | 87.94 J/K/mol
110 K, Crystal | 88.26 J/K/mol
110.53 K, Crystal | 88.83 J/K/mol
112.28 K, Crystal | 89.53 J/K/mol
114 K, Crystal | 90.58 J/K/mol
115 K, Crystal | 91.11 J/K/mol
115.71 K, Crystal | 91.48 J/K/mol
117.4 K, Crystal | 92.47 J/K/mol
119.07 K, Crystal | 93.42 J/K/mol
120 K, Crystal | 93.92 J/K/mol
120.73 K, Crystal | 94.06 J/K/mol
122.36 K, Crystal | 94.81 J/K/mol
123.99 K, Crystal | 95.87 J/K/mol
125 K, Crystal | 96.69 J/K/mol
125.6 K, Crystal | 96.98 J/K/mol
127.19 K, Crystal | 97.8 J/K/mol
128.78 K, Crystal | 98.46 J/K/mol
130 K, Crystal | 99.4 J/K/mol
130.34 K, Crystal | 99.55 J/K/mol
131.9 K, Crystal | 100.68 J/K/mol
133.44 K, Crystal | 101.08 J/K/mol
134.97 K, Crystal | 101.62 J/K/mol
135 K, Crystal | 102.07 J/K/mol
136.49 K, Crystal | 102.52 J/K/mol
138 K, Crystal | 103.61 J/K/mol
139.5 K, Crystal | 104.14 J/K/mol
140 K, Crystal | 104.7 J/K/mol
140.99 K, Crystal | 104.87 J/K/mol
142.47 K, Crystal | 105.48 J/K/mol
143.93 K, Crystal | 106.66 J/K/mol
145 K, Crystal | 107.29 J/K/mol
145.39 K, Crystal | 107.75 J/K/mol
146.84 K, Crystal | 108.26 J/K/mol
148.28 K, Crystal | 109.04 J/K/mol
149.71 K, Crystal | 109.83 J/K/mol
150 K, Crystal | 109.85 J/K/mol
151.13 K, Crystal | 111.12 J/K/mol
152.54 K, Crystal | 111.74 J/K/mol
153.94 K, Crystal | 112.08 J/K/mol
155 K, Crystal | 112.39 J/K/mol
155.34 K, Crystal | 112.93 J/K/mol
157.51 K, Crystal | 113.86 J/K/mol
160 K, Crystal | 114.92 J/K/mol
160.42 K, Crystal | 115.39 J/K/mol
163.32 K, Crystal | 116.39 J/K/mol
165 K, Crystal | 117.44 J/K/mol
166.18 K, Crystal | 117.94 J/K/mol
169.01 K, Crystal | 119.36 J/K/mol
170 K, Crystal | 119.97 J/K/mol
171.81 K, Crystal | 121.11 J/K/mol
174.59 K, Crystal | 122.69 J/K/mol
175 K, Crystal | 122.52 J/K/mol
177.33 K, Crystal | 124.06 J/K/mol
180 K, Crystal | 125.09 J/K/mol
180.05 K, Crystal | 125.43 J/K/mol
182.75 K, Crystal | 126.44 J/K/mol
185 K, Crystal | 127.68 J/K/mol
185.43 K, Crystal | 127.77 J/K/mol
190 K, Crystal | 130.3 J/K/mol
190.71 K, Crystal | 130.68 J/K/mol
193.31 K, Crystal | 131.82 J/K/mol
195 K, Crystal | 133 J/K/mol
195.91 K, Crystal | 133.03 J/K/mol
198.41 K, Crystal | 134.61 J/K/mol
200 K, Crystal | 135.65 J/K/mol
200.76 K, Crystal | 135.6 J/K/mol
203.12 K, Crystal | 136.47 J/K/mol
205 K, Crystal | 138.37 J/K/mol
205.61 K, Crystal | 137.67 J/K/mol
208.11 K, Crystal | 139.14 J/K/mol
210 K, Crystal | 141.12 J/K/mol
210.61 K, Crystal | 140.62 J/K/mol
213.05 K, Crystal | 142.39 J/K/mol
215 K, Crystal | 143.89 J/K/mol
215.46 K, Crystal | 143.66 J/K/mol
217.88 K, Crystal | 145.35 J/K/mol
220 K, Crystal | 146.69 J/K/mol
220.3 K, Crystal | 147.01 J/K/mol
222.73 K, Crystal | 148.63 J/K/mol
225 K, Crystal | 149.5 J/K/mol
225.15 K, Crystal | 150.44 J/K/mol
227.5 K, Crystal | 152.1 J/K/mol
229.92 K, Crystal | 153.24 J/K/mol
230 K, Crystal | 152.31 J/K/mol
232.35 K, Crystal | 154.92 J/K/mol
234.92 K, Crystal | 156.38 J/K/mol
235 K, Crystal | 155.12 J/K/mol
237.8 K, Crystal | 157.76 J/K/mol
240 K, Crystal | 157.9 J/K/mol
240.46 K, Crystal | 159.08 J/K/mol
242.88 K, Crystal | 160.14 J/K/mol
245 K, Crystal | 160.64 J/K/mol
245.08 K, Crystal | 161.43 J/K/mol
247.12 K, Crystal | 162.34 J/K/mol
249.24 K, Crystal | 163.27 J/K/mol
250 K, Crystal | 163.39 J/K/mol
251.44 K, Crystal | 164.55 J/K/mol
253.56 K, Crystal | 165.45 J/K/mol
255 K, Crystal | 166.07 J/K/mol
255.68 K, Crystal | 166.2 J/K/mol
257.73 K, Crystal | 166.92 J/K/mol
259.85 K, Crystal | 167.67 J/K/mol
260 K, Crystal | 168.69 J/K/mol
261.89 K, Crystal | 168.77 J/K/mol
264.01 K, Crystal | 169.61 J/K/mol
265 K, Crystal | 171.25 J/K/mol
266.06 K, Crystal | 170.55 J/K/mol
268.03 K, Crystal | 171.61 J/K/mol
270 K, Crystal | 173.73 J/K/mol
270.08 K, Crystal | 172.38 J/K/mol
272.05 K, Crystal | 173.75 J/K/mol
274.01 K, Crystal | 174.95 J/K/mol
275 K, Crystal | 176.14 J/K/mol
275.99 K, Crystal | 175.77 J/K/mol
277.95 K, Crystal | 176.86 J/K/mol
279.85 K, Crystal | 177.84 J/K/mol
280 K, Crystal | 178.48 J/K/mol
281.74 K, Crystal | 178.91 J/K/mol
283.64 K, Crystal | 179.72 J/K/mol
285 K, Crystal | 180.75 J/K/mol
285.53 K, Crystal | 180.86 J/K/mol
287.42 K, Crystal | 181.6 J/K/mol
289.24 K, Crystal | 182.74 J/K/mol
290 K, Crystal | 182.93 J/K/mol
291.06 K, Crystal | 183.73 J/K/mol
292.88 K, Crystal | 184.79 J/K/mol
294.62 K, Crystal | 185.72 J/K/mol
295 K, Crystal | 185.12 J/K/mol
296.36 K, Crystal | 186.66 J/K/mol
298.03 K, Crystal | 187.45 J/K/mol
298.15 K, Crystal | 186.47 J/K/mol
299.7 K, Crystal | 187.95 J/K/mol
301.36 K, Crystal | 188.77 J/K/mol
303.86 K, Crystal | 189.94 J/K/mol
305 K, Crystal | 189.4 J/K/mol
306.12 K, Crystal | 191.07 J/K/mol
308.39 K, Crystal | 191.8 J/K/mol
310 K, Crystal | 191.58 J/K/mol
310.67 K, Crystal | 192.53 J/K/mol
312.95 K, Crystal | 193.73 J/K/mol
315 K, Crystal | 193.86 J/K/mol
319.7 K, Crystal | 196.52 J/K/mol
320 K, Crystal | 196.27 J/K/mol
321.89 K, Crystal | 197.35 J/K/mol
324.09 K, Crystal | 198.21 J/K/mol
325 K, Crystal | 198.9 J/K/mol
326.21 K, Crystal | 199.12 J/K/mol
328.41 K, Crystal | 199.91 J/K/mol
330 K, Crystal | 201.83 J/K/mol
330.53 K, Crystal | 200.78 J/K/mol
332.65 K, Crystal | 201.79 J/K/mol
334.67 K, Crystal | 202.59 J/K/mol
335 K, Crystal | 205.15 J/K/mol
336.74 K, Crystal | 203.39 J/K/mol
338.77 K, Crystal | 205.71 J/K/mol
340 K, Crystal | 208.96 J/K/mol
350 K, Liquid | 208.08 J/K/mol
350.08 K, Liquid | 208.1 J/K/mol
351.82 K, Liquid | 208.76 J/K/mol
353.56 K, Liquid | 209.27 J/K/mol
355 K, Liquid | 209.85 J/K/mol
355.74 K, Liquid | 210.16 J/K/mol
357.14 K, Liquid | 210.51 J/K/mol
358.64 K, Liquid | 210.8 J/K/mol
360 K, Liquid | 211.16 J/K/mol
361.51 K, Liquid | 211.51 J/K/mol
362.95 K, Liquid | 211.74 J/K/mol
364.32 K, Liquid | 212.33 J/K/mol
365 K, Liquid | 212.44 J/K/mol
365.61 K, Liquid | 212.74 J/K/mol
366.82 K, Liquid | 213.06 J/K/mol
367.95 K, Liquid | 213.48 J/K/mol
369.01 K, Liquid | 213.84 J/K/mol
369.7 K, Liquid | 214.36 J/K/mol
370 K, Liquid | 214.39 J/K/mol and 214.31 J/K/mol
370.76 K, Liquid | 214.45 J/K/mol
371.51 K, Liquid | 214.51 J/K/mol and 214.66 J/K/mol
